From US20240376165A1, “COMPOSITION COMPRISING VGLL1 PEPTIDE FOR TREATMENT OF CANCER” (ONECUREGEN CO., LTD., priority 2020, published 2024)
d = 2'-deoxy (DNA); r = 2'-OH (RNA)

Assays:
[1] = test system: MMP9; assay: MMP9 knockdown by siRNA, RT-PCR; type: cell-based, human; details: NUGC3, 20 nM siRNA, 48 hours, FIG. 2A
Procedure: Specifically, the stomach cancer cells line NUGC3 was cultured in a 6-well plate overnight, and then treated with the mixture of Lipofectamine 2000 and 20 nM siSC or siMMP9 (SEQ ID NO: 22) and. After 48 hours, mRNA was extracted from the cells and complementary DNA was synthesized, followed by RT-PCR using the MMP9 primer (FIG. 2A).

[2] = test system: stomach cancer cell line NUGC3; assay: Cell proliferation after siRNA, Sulforhodamine B staining; type: cell-based, human; details: NUGC3, 20 nM siRNA, 48 hours, FIG. 2B
Procedure: In addition, in order to confirm the cell proliferation ability of MMP9, the stomach cancer cell line NUGC3 was cultured in a 96-well plate. The next day, cells were treated with the mixture of Lipofectamine 2000 and 20 nM siSC or siMMP9. After 48 hours, cells were fixed using 1% formalin solution. Thereafter, the cells were stained with 0.4% Sulforhodamine B solution for 1 hour, washed with acetic acid, and dried. Then, the cells were dissolved in a 10 mM Tris solution, and absorbance was measured at 540 nm using an ELISA plate reader (FIG. 2B).

[3] = test system: stomach cancer cell line NUGC3; assay: Matrigel cell invasion after siRNA; type: cell-based, human; details: NUGC3, siRNA knockdown cells, Matrigel insert, 48 hours, FIG. 2C
Procedure: (§1) Next, in order to confirm the cell invasive ability of MMP9, a cell culture insert was fixed in a 24-well plate. Matrigel was diluted 20-fold, and 100 μl of diluent was added. The reaction was carried out at 37° C. for 1 hour or longer. 700 μl of medium containing 10% serum was added to a 24-well plate under the insert. MMP knockdown cells with the above siRNA were added to the insert according to 300 μl of serum-free medium to a concentration of 5×10^5. After 48 hours, the insert was removed and cells were fixed in 10% formalin solution. Cells remaining inside the insert were removed with a cotton swab and washed with water. Cells were stained with 0.4% Sulforhodamine B solution for 1 hour, washed with acetic acid, and dried. Then, a photograph was taken with an optical microscope, the membrane on the insert was cut, and Sulforhodamine B in stained cells was dissolved in 10 mM Tris solution, and absorbance was measured at 540 nm using an ELISA plate reader (FIG. 2C).

[4] = test system: MMP9; assay: MMP9 expression by TGF-β treatment, RT-PCR; type: cell-based, human; details: NUGC3, RT-PCR, after 6 hours of TGF-β treatment, FIG. 1
Procedure: In order to confirm the expression change of MMP9 according to TGF-β treatment in stomach cancer cell lines, the human stomach cancer cell line NUGC3 was treated with TGF-β at each time period, then mRNA was extracted from the cells, and complementary DNA was synthesized. Then RT-PCR was performed using Matrix metalloproteinase 9 (MMP9) primers (Table 4).

[5] = test system: stomach cancer cell line NUGC3; assay: Cancer cell proliferation with peptide variants, real-time cell analysis (Incucyte); type: cell-based, human; details: NUGC3, 60 μM peptide, FIG. 11
Procedure: The stomach cancer cell line NUGC3 was cultured in a 96-well plate, and the next day, the cells were treated with 60 μM peptide. The cell proliferation was analyzed using a real-time cell analysis system (product name: Incucyte).
FIG. 11A is a graph of real-time cell proliferation, and FIG. 11B is a graph showing cell proliferation after 4 days based on 100% control peptide.

[6] = test system: MMP9 promoter; assay: MMP9 promoter luciferase activity after TGF-β treatment; type: cell-based, human; details: NUGC3, 20 nM siRNA, TGF-β 18 hours, compared to control (siSC), FIG. 3
Procedure: In order to determine whether VGLL1 and TEAD4 were involved in MMP9 promoter activity in NUGC3 human stomach cancer cell line, the MMP9 promoter luciferase activity was investigated after TGF-β treatment.
Specifically, the stomach cancer cell NUGC3 was cultured in a 48-well plate at a concentration of 2× 10^4 cells/well. The next day, the MMP9 gene-inserted pGL4.17-luciferase vector was transfected into cells using Lipofectamine 2000. After 24 hours, 20 nM siSC (SEQ ID NO: 23: 5′-CCUACGCCACCAAUUUCGUdTdT-3′) siVGLL1 (SEQ ID NO 24: 5′-[…]dTdT-3′), siTEAD4 (SEQ ID NO 25: 5′-GACACUACUCUUACCGCAUdTdT-3′), and siYAP (SEQ ID NO 26: 5′-CCACCA AGCUAGAUAAAGAAAdTdT-3′) were mixed with Lipofectamine 2000, and the cells were treated with the mixture. The next day, the cells were treated with TGF-β for 18 hours. Thereafter, the cells were disrupted using a passive lysis buffer. Then, after centrifuging cells, a supernatant was obtained. […] At this time, the degree of luminescence of the cells was checked using Victor X Light.

[7] = test system: MMP9; assay: MMP9 mRNA expression after TGF-β treatment, RT-PCR; type: cell-based, human; details: NUGC3, 20 nM siRNA, TGF-β 18 hours, compared to control (siSC), FIG. 4
Procedure: In order to determine whether VGLL1 and TEAD4 were involved in MMP9 mRNA expression in NUGC3 human stomach cancer cells, MMP9 mRNA expression was examined by RT-PCR after TGF-β treatment.
Specifically, the stomach cancer cell line NUGC3 was cultured in a 6-well plate. The next day, 20 nM siSC, siVGLL1, siTEAD4, and siYAP were mixed with Lipofectamine 2000, and the cell line was treated with the mixture. The next day, after treatment with TGF-β for 18 hours, mRNA was extracted from the cells and complementary DNA was synthesized, followed by RT-PCR.

[8] = test system: stomach cancer cell line NUGC3; assay: Cancer cell proliferation, real-time cell analysis (IncuCyte Zoom); type: cell-based, human; details: FIG. 9
Procedure: Specifically, the stomach cancer cell line NUGC3 was cultured in a 96-well plate. The next day, the cells were treated with the peptide fragment. The cell proliferation was analyzed using a real-time cell analysis system (product name: IncuCyte Zoom).

[9] = test system: MMP9; assay: MMP9 protein expression induced by TGF-β, western blot, peptide treatment; type: cell-based, human; details: NUGC3, TGF-β and peptide for 18 hours, FIG. 8
Procedure: To evaluate whether the peptide fragment that interferes the binding between VGLL1 and TEAD4 can inhibit MMP9 expression in human stomach cancer cells, peptides shown in Table 6 were prepared to examine their effects on MMP9 expression.
Experiments were performed using the synthetic peptide fragments. The stomach cancer NUGC3 cells were cultured in a 6-well plate. The next day, cells were cultured in serum-free cell culture for 24 hours. TGF-β and a control peptide fragment (SEQ ID NO: 12), a peptide fragment containing serine at position 84 of VGLL1 (SEQ ID NO: 27), and a mutant peptide fragment containing alanine at position 84 of VGLL1 (SEQ ID NO: 28) were treated into cells for 18 hours. Proteins were extracted from the cells using a Ripa buffer and were separated by electrophoresis. Thereafter, protein expression of genes was confirmed by using an antibody on the polyvinylidene fluoride membrane.

[10] = test system: stomach cancer cell line NUGC3; assay: Cancer cell invasion with peptide fragment; type: cell-based, human; details: NUGC3, insert, 48 hours, FIG. 10
Procedure: as §1
A method similar to Example 1-2 was performed for stomach cancer cell invasion experiment by the VGLL1 peptide fragment.
The stomach cancer cell line NUGC3 was placed in an insert together with the peptide fragment. After 48 hours of cell culture, the insert was fixed in a 10% formalin solution, and the downwardly migrated cells were confirmed by staining with 0.4% Sulforhodamine B solution.

[11] = test system: stomach cancer cells; assay: Proliferation of various cancer cells: stomach cancer; type: cell-based; details: 60 μM peptide; NUGC3, AG5, NCI-N87, SNU484, MKN1; FIG. 12
Procedure: (§2) In order to confirm the various cancer cell proliferation inhibitory effects of the variant of S84 VGLL1 peptide fragment, the VGLL1 S84 peptide sequence represented by SEQ ID NO: 27 was treated into various cancer cell lines.
(§3) Specifically, the cancer cells of Table 8 were cultured in a 96-well plate and treated with 60 μM peptide on the next day, and cell proliferation was analyzed using a real-time cell analysis system (product name: IncuCyte Zoom).

[12] = test system: colorectal cancer cells; assay: Proliferation of various cancer cells: colorectal cancer; type: cell-based; details: 60 μM peptide; SW620, HCT116, WiDr; FIG. 12
Procedure: as §2, §3

[13] = test system: lung cancer cells; assay: Proliferation of various cancer cells: lung cancer; type: cell-based; details: 60 μM peptide; A549, H1650, H1299; FIG. 12
Procedure: as §2, §3

[14] = test system: liver cancer cells; assay: Proliferation of various cancer cells: liver cancer; type: cell-based; details: 60 μM peptide; HepG2, SNU354; FIG. 12
Procedure: as §2, §3

[15] = test system: prostate cancer cells; assay: Proliferation of various cancer cells: prostate cancer; type: cell-based; details: 60 μM peptide; FIG. 12
Procedure: as §2, §3

[16] = test system: breast cancer cells; assay: Proliferation of various cancer cells: breast cancer; type: cell-based; details: 60 μM peptide; MCF7, SKBR3; FIG. 12
Procedure: as §2, §3

[17] = test system: cervical cancer cells; assay: Proliferation of various cancer cells: cervical cancer; type: cell-based; details: 60 μM peptide; Hela; FIG. 12
Procedure: as §2, §3

[18] = test system: ovarian cancer cells; assay: Proliferation of various cancer cells: ovarian cancer; type: cell-based; details: 60 μM peptide; SK-OV3; FIG. 12
Procedure: as §2, §3

[19] = molecular target: T1, GFP-TEAD4, expressed from the GFP-TEAD4 vector (UniProt Q15561 1-434); assay: co-immunoprecipitation with HA antibody agarose, western blot with GFP antibody
T1 construct: Detected with GFP antibody in the HA immunoprecipitate; also called transcription factor TEAD4; not shown: GFP tag
T1 sequence (Q15561 whole entry): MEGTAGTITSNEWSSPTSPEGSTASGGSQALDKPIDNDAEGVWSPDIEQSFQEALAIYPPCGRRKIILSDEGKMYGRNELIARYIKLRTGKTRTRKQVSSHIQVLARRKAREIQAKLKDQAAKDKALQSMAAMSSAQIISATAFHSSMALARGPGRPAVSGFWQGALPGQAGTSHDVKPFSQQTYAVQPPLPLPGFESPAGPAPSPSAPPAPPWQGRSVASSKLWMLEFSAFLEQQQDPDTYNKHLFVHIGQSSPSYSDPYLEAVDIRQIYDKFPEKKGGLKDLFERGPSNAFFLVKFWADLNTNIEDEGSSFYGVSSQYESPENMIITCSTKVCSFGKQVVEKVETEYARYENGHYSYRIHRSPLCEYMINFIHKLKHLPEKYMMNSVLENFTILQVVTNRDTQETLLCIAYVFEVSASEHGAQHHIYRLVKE
Procedure: Specifically, the GFP-TEAD4 vector and pcDNA3-HA (EV), pcDNA3-HA-VGLL1 (WT), pcDNA3-HA-VGLL1-S50A (S50A mutation), pcDNA3-HA-VGLL1-S84A (S84A mutation), and pcDNA3-HA-VGLL1-S124A (S124A mutation) were mixed with Turbofect. The mixture was transformed to the cell lines cultured for 24 hours. After 48 hours, the protein was extracted from the cells using a Ripa buffer. The extracted protein was subjected to immunoprecipitation using agarose bound with HA antibody and separated by electrophoresis. Thereafter, western blot analysis was performed using an antibody on the polyvinylidene fluoride membrane.

“5′-CCACAACAUCACCUAUUGGAUdTdT-3′ [siMMP9]” was tested, and the “expression of MMP9” value [1] was “reduced expression of MMP9”, the cell viability [2] was “greatly reduced cell viability” and the cell invasiveness [3] was “greatly reduced cell invasiveness”.

In the case of Transforming growth factor-β [TGF-β], the “expression of MMP9” value [4] is reported as “increased”.

For “YGRKKRRQRRR-PNQWRYSSPWAKPQP (YGRKKRRQRRRPNQWRYSSPWAKPQP; HIV TAT sequence linked; Tat-VGLL1(T87A)) [VGLL1 T87A]”, the “inhibition of cancer cell proliferation” value [5] was “excellent effect in inhibiting cancer cell proliferation”.

In the case of 5′-GACACUACUCUUACCGCAUdTdT-3′ [siTEAD4], the “MMP9 promoter activity increased by TGF-β” value [6] is reported as “decreased” and the “MMP9 mRNA expression increased by TGF-β” value [7] is reported as “decreased”.

With “YGRKKRRQRRR (HIV-1 Tat) [Control peptide]” the “inhibition of cancer cell proliferation” value [8] was “did not have any effect”.

In the case of “5′-AGCCUAUAAAGACGGAAUGGAAUdTdT-3′ (sense AGCCUAUAAAGACGGAAUGGAAUTT; sugars from the 5' end r23 d2, backbone not given here) [siVGLL1, siRNA against VGLL1]”, the “MMP9 promoter activity increased by TGF-β” value [6] is reported as “decreased” and the “MMP9 mRNA expression increased by TGF-β” value [7] is reported as “decreased”.

In the case of “YGRKKRRQRRR-PNQWRYSSAWTKPQP (YGRKKRRQRRRPNQWRYSSAWTKPQP; HIV TAT sequence linked; Tat-VGLL1(P85A)) [VGLL1 P85A]”, the “inhibition of cancer cell proliferation” value [5] is reported as “excellent effect in inhibiting cancer cell proliferation”.

For “YGRKKRRQRRRPNQWRYSAPWTKPQP (HIV TAT domain linked; Tat-VGLL1(S84A)) [VGLL1 (S84A), reference compound]”, the “increased MMP9 expression by TGF-β” value [9] was “not affected”, the “inhibition of cancer cell proliferation” value [8] was “did not have any effect” and the “inhibition of cancer cell invasion” value [10] was “did not exhibit such an effect”.

For “YGRKKRRQRRR-YSSPWTK (YGRKKRRQRRRYSSPWTK; HIV TAT sequence linked; Tat-VGLL1(S84-S)) [VGLL1 S84-S]”, the “inhibition of cancer cell proliferation” value [5] was “excellent effect in inhibiting cancer cell proliferation”.

“YGRKKRRQRRRPNQWRYSSPWTKPQP [VGLL1 (S84)]” was tested, and the “increased MMP9 expression by TGF-β” value [9] was “reduced”, the “inhibition of cancer cell proliferation” value [8] was “exhibited an effect of inhibiting cancer cell proliferation” and the “inhibition of cancer cell invasion” value [10] was “exhibited an effect of inhibiting cancer cell invasion”. For the same molecule, the “inhibition of cancer cell proliferation” value [5] was “excellent effect in inhibiting cancer cell proliferation”, the “inhibition of proliferation of stomach cancer cells” value [11] was “excellent effect in inhibiting the proliferation” and the “inhibition of proliferation of colorectal cancer cells” value [12] was “excellent effect in inhibiting the proliferation”. For the same molecule, the “inhibition of proliferation of lung cancer cells” value [13] was “excellent effect in inhibiting the proliferation”, the “inhibition of proliferation of liver cancer cells” value [14] was “excellent effect in inhibiting the proliferation” and the “inhibition of proliferation of prostate cancer cells” value [15] was “excellent effect in inhibiting the proliferation”. For the same molecule, the “inhibition of proliferation of breast cancer cells” value [16] was “excellent effect in inhibiting the proliferation”, the “inhibition of proliferation of cervical cancer cells” value [17] was “excellent effect in inhibiting the proliferation” and the “inhibition of proliferation of ovarian cancer cells” value [18] was “excellent effect in inhibiting the proliferation”.

B1: HA-VGLL1-S84A, expressed from pcDNA3-HA-VGLL1-S84A (other)
chain: MEEMKKTAIRLPKGKQKPIKTEWNSRCVLFTYFQGDISSVVDEHFSRALSNIKSPQELTPSSQSEGVMLKNDDSMSPNQWRYSAPWTKPQPEVPVTNRAANCNLHVPGPMAVNQFSPSLARRASVRPGELWHFSSLAGTSSLEPGYSHPFPARHLVPEPQPDGKREPLLSLLQQDRCLARPQESAARENGNPGQIAGSTGLLFNLPPGSVHYKKLYVSRGSASTSLPNETLSELETPGKYSLTPPNHWGHPHRYLQHL
notes: Serine 84 of VGLL1 replaced with alanine by site-directed mutagenesis in the pcDNA3-HA-VGLL1 vector; also called S84A mutation; not shown: HA tag from the pcDNA3-HA vector
B1: no binding [19].
